Where a chain is given by its changes, count along the chain named.
Key:
GLP-2R K414^7.35A = target: T1, GLP-2R K414^7.35A (Homo sapiens, UniProt O95838, K414A); assay: radioligand competition binding, K414^7.35A; design: WT (1–553); expressed in transfected cells; host or cells: COS-7; conditions: COS-7, K414^7.35 A; [^125I]GLP-2(1–33, M10Y) 10–15 pM, 4 h, 4 °C; mean ± SEM, n ≥ 3 in duplicate
T1 sequence (O95838 1-553 K414A): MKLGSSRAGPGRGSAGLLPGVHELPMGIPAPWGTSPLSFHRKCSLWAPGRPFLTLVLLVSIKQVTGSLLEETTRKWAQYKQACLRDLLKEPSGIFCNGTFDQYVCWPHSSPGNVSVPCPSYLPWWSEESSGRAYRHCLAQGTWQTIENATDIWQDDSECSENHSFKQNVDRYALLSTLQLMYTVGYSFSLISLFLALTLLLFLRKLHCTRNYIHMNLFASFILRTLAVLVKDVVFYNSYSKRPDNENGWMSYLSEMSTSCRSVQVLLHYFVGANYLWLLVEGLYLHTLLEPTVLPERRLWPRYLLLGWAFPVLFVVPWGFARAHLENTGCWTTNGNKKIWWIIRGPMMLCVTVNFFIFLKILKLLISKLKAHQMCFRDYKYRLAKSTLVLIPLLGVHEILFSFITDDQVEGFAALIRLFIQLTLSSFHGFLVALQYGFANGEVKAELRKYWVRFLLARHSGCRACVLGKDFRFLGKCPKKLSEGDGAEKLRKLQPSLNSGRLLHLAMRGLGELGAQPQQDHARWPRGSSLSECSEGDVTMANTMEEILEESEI
Experimental: (§1) A stepwise oxidation reaction was performed by addition of 6 aliquots of 5 µL ChloramineT (30 µL/mL) with a 1-min interval during constant stirring. The reaction was terminated by the addition of 400 µL phase A (0.1% trifluoracetic acid) before being fractionated into 1 mL volume by reverse-phase high-performance liquid chromatography (RP-HPLC, Waters 600 SimiPrep system) on a C18 column. The iodinated protein was […] by increasing concentrations of phase B (Acetonitrile + 0.1% TFA) and tested for competitive binding ability.
(§2) One day before transfection, the COS-7 cells were seeded in 75 cm^2 culture flasks (3 million cells/flask) in DMEM, containing 3.9 g/L NaHCO3 and supplemented with 10% FBS, 1% L-glutamine, 180 units/mL penicillin and 45 µg/mL streptomycin. After an overnight culture at 37 °C, 10% CO2 and 95% air humidity, the cells were transiently transfected with different GLP-2R constructs or pcDNA3.1 vector as previously described.[52] Following 24-h incubation, the cells were transferred to Costa® microtiter plates (150,000 cells/well, PerkinElmer) to achieve a 5%–10% specific binding. […] The cells were then washed twice in binding buffer (4 °C), lysed and counted for radioactivity using a Wallac Gamma Counter (PerkinElmer).

GLP-2R R242^ECL1E = target: T2, GLP-2R R242^ECL1E (Homo sapiens, UniProt O95838, R242E); assay: radioligand competition binding, R242^ECL1E; design: WT (1–553); expressed in transfected cells; conditions: COS-7, R242^ECL1E; [^125I]GLP-2(1–33, M10Y) 10–15 pM, 4 h, 4 °C; n ≥ 3 in duplicate
T2 sequence (O95838 1-553 R242E): T1 sequence (O95838 1-553 K414A) with R242E, A414K
Experimental: as §1, §2

GLP-2R Y252^ECL1A = target: T3, GLP-2R Y252^ECL1A (Homo sapiens, UniProt O95838, Y252A); assay: radioligand competition binding, Y252^ECL1A; design: WT (1–553); expressed in transfected cells; conditions: COS-7, Y252^ECL1A; [^125I]GLP-2(1–33, M10Y) 10–15 pM, 4 h, 4 °C; mean ± SEM, n ≥ 3 in duplicate
T3 sequence (O95838 1-553 Y252A): T1 sequence (O95838 1-553 K414A) with Y252A, A414K
Experimental: as §1, §2

| Structure (SMILES) | % Binding of WT (GLP-2R K414^7.35A) [%] | % Binding of WT (GLP-2R R242^ECL1E) | % Binding of WT (GLP-2R Y252^ECL1A) [%] |
| --- | --- | --- | --- |
| CC[C@H](C)[C@H](NC(=O)[C@H](Cc1ccccc1)NC(=O)[C@H](CC(=O)O)NC(=O)[C@H](CCCNC(=N)N)NC(=O)[C@H](C)NC(=O)[C@H](C)NC(=O)[C@H](CC(C)C)NC(=O)[C@H](CC(N)=O)NC(=O)[C@H](CC(=O)O)NC(=O)[C@H](CC(C)C)NC(=O)[C@@H](NC(=O)[C@@H](NC(=O)[C@H](CC(N)=O)NC(=O)[C@H](CCSC)NC(=O)[C@H](CCC(=O)O)NC(=O)[C@H](CC(=O)O)NC(=O)[C@H](CO)NC(=O)[C@H](Cc1ccccc1)NC(=O)[C@H](CO)NC(=O)CNC(=O)[C@H](CC(=O)O)NC(=O)[C@H](C)NC(=O)[C@@H](N)Cc1c[nH]cn1)[C@@H](C)O)[C@@H](C)CC)C(=O)N[C@@H](CC(N)=O)C(=O)N[C@@H](Cc1c[nH]c2ccccc12)C(=O)N[C@@H](CC(C)C)C(=O)N[C@H](C(=O)N[C@@H](CCC(N)=O)C(=O)N[C@H](C(=O)N[C@@H](CCCCN)C(=O)N[C@H](C(=O)N[C@H](C(=O)N[C@@H](CC(=O)O)C(=O)O)[C@@H](C)O)[C@@H](C)CC)[C@@H](C)O)[C@@H](C)CC [Human GLP-2 (1–33)] | 15.2 ± 1.0 | N.B. | 8.3 ± 1.8 |
| CC[C@H](C)[C@H](NC(=O)[C@H](Cc1ccccc1)NC(=O)[C@H](CC(=O)O)NC(=O)[C@H](CCCNC(=N)N)NC(=O)[C@H](C)NC(=O)[C@H](C)NC(=O)[C@H](CC(C)C)NC(=O)[C@H](CC(N)=O)NC(=O)[C@H](CC(=O)O)NC(=O)[C@H](CC(C)C)NC(=O)[C@@H](NC(=O)[C@@H](NC(=O)[C@H](CC(N)=O)NC(=O)[C@H](CCSC)NC(=O)[C@H](CCC(=O)O)NC(=O)[C@H](CC(=O)O)NC(=O)[C@H](CO)NC(=O)[C@H](Cc1ccccc1)NC(=O)[C@H](CO)NC(=O)CNC(=O)[C@H](CC(=O)O)NC(=O)CNC(=O)[C@@H](N)Cc1c[nH]cn1)[C@@H](C)O)[C@@H](C)CC)C(=O)N[C@@H](CC(N)=O)C(=O)N[C@@H](Cc1c[nH]c2ccccc12)C(=O)N[C@@H](CC(C)C)C(=O)N[C@H](C(=O)N[C@@H](CCC(N)=O)C(=O)N[C@H](C(=O)N[C@@H](CCCCN)C(=O)N[C@H](C(=O)N[C@H](C(=O)N[C@@H](CC(=O)O)C(=O)O)[C@@H](C)O)[C@@H](C)CC)[C@@H](C)O)[C@@H](C)CC [Teduglutide] | 13.9 ± 0.8 | N.B. | 6.3 ± 1.7 |

Reference: PMC7785020, “A unique hormonal recognition feature of the human glucagon-like peptide-2 receptor” (Cell Research, 2020)
